Experiments:
RsTSPO [1] = target: T1, RsTSPO (Cereibacter sphaeroides, UniProt Q9RFC8); test: Tryptophan fluorescence quenching binding assay, purified wild-type RsTSPO; set-up: species or system Rhodobacter sphaeroides; details: for quenching of the tryptophan fluorescence: compared to that of PpIX
T1 sequence (Q9RFC8 1-158): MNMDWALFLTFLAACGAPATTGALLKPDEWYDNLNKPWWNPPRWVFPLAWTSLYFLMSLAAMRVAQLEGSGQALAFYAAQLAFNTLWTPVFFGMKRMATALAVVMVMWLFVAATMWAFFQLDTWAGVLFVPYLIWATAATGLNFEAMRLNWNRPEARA

RsTSPOW38C = target: T2, RsTSPOW38C (Cereibacter sphaeroides, UniProt Q9RFC8, W38C); test: Tryptophan fluorescence quenching binding assay, purified RsTSPOW38C mutant; set-up: species or system Rhodobacter sphaeroides; details: for decrease in binding affinity by the W38C mutation: RsTSPOW38C versus wild-type RsTSPO
T2 sequence (Q9RFC8 1-158 W38C): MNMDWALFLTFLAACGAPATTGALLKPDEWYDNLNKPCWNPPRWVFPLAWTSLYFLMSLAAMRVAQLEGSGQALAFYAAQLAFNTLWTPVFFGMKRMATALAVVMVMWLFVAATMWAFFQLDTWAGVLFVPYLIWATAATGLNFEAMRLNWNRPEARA

RsTSPO [2] = target: T1, RsTSPO; details: cited from earlier work
RsTSPO [3] = target: T1, RsTSPO; test: Competition binding assay of PpIX, PK11195 and cholesterol with purified RsTSPO; set-up: species or system Rhodobacter sphaeroides
SEC = target: the molecule itself; test: SEC

With `NCC(=O)CCC(=O)O` [ALA, δ-aminolevulinic acid] the “quenching of the tryptophan fluorescence” value (RsTSPO [1]) was “only a small quenching”.

For `CC(C)CCC[C@@H](C)[C@H]1CC[C@H]2[C@@H]3CC=C4C[C@@H](O)CC[C@]4(C)[C@H]3CC[C@]12C` [Cholesterol], the Kd (RsTSPO [1]; Kapp to RsTSPO, estimated from half-maximal quenching) was ~80 µM and the Kd (RsTSPOW38C; Kapp to RsTSPOW38C, estimated from half-maximal quenching) was ~200 µM.

For `CCC(C)N(C)C(=O)c1cc2ccccc2c(-c2ccccc2Cl)n1` (stereo not drawn) [PK11195], the “decrease in binding affinity by the W38C mutation” value (RsTSPOW38C) is given as 3 fold and the “binding of PK11195 to wild-type RsTSPO” value (RsTSPO [2]) is given as “no binding affinity above background”.

In the case of `C=CC1=C(C)c2cc3[nH]c(cc4nc(cc5[nH]c(cc1n2)c(C)c5CCC(=O)O)C(CCC(=O)O)=C4C)c(C)c3C=C` [PpIX, Protoporphyrin IX], the “maximal quenching of tryptophan fluorescence” value (RsTSPO [1]; Rs- and HsTSPO, 290 to 400 nm) is reported as ~100%, the “decrease in binding affinity by the W38C mutation” value (RsTSPOW38C) is reported as 6 fold and the “increase in the Kd of PpIX” value (RsTSPO [3]; RsTSPO preincubated with 20 μM PK11195) is reported as ~3 fold. For the same molecule, the “increase in the Kd of PpIX” value (RsTSPO [3]; RsTSPO preincubated with 20 μM PK11195 and 50 μM cholesterol together) was ~4 fold.

With `C[C@H](CCC(=O)O)[C@H]1CC[C@H]2[C@@H]3[C@@H](O)C[C@@H]4C[C@H](O)CC[C@]4(C)[C@H]3CC[C@]12C` [ursodeoxycholate] the “affinity for RsTSPO” value (RsTSPO [1]) was “no detectable affinity” and the “quenching of the tryptophan fluorescence” value (RsTSPO [1]) was “only a small quenching”.

B1: RsTSPOW38C, W38C mutant of Translocator Protein 18 kDa from Rhodobacter sphaeroides (natural protein, UniProt Q9RFC8 1-158, looked up)
chain: MNMDWALFLTFLAACGAPATTGALLKPDEWYDNLNKPCWNPPRWVFPLAWTSLYFLMSLAAMRVAQLEGSGQALAFYAAQLAFNTLWTPVFFGMKRMATALAVVMVMWLFVAATMWAFFQLDTWAGVLFVPYLIWATAATGLNFEAMRLNWNRPEARA
B1: binds (SEC).

From paper PMC3756528 (Biochemistry, 2013)
